PMC5674221, “Harnessing fungal nonribosomal cyclodepsipeptide synthetases for mechanistic insights and tailored engineering” (Chemical Science, 2017)
Read-outs that look alike come from different tables or passages of the source.

Columns and labels:
[1] = tested on: Aspergillus fumigatus Afum:00073 = ATCC46645; assay: Antifungal inhibition zone test, A. fumigatus; type: cell-based; settings: JMRC-No. ATCC 46645; Supplementary Table 6
Protocol: (§1) Bioactivity assays. Purified octa-enniatin B, octa-beauvericin and hexa-bassianolide were tested for antiparasitic, antibacterial and antifungal bioactivity together with standards of enniatin B, beauvericin and bassianolide. […]
(§2) Table 5). Antifungal activity was determined against Sporobolomyces salmonicolor […]
(§3) Aspergillus fumigatus Afum:00073 = ATCC46645 (Supplementary Table 6). The bacterial and fungal test strains are deposited at the Jena Microbial Resource Collection at www.jmrc.hki-jena.de. Activity was determined based on inhibition zone diameters in […]
(§4) (antifungal) in accordance to Krieg et al. (2017).10 […]
(§5) p- Colonies in inhibition zone
(§6) P- Many colonies in inhibition zone
(§7) F- Promotion of inhibition zone
(§8) A- Intimation of inhibition
(§9) Supplementary Table 6: Antifungal activity of natural and hybrid CDPs. Activity was analyzed by comparison of inhibition zone diameters.

[2] = tested on: Candida albicans STI:25000; assay: Antifungal inhibition zone test, C. albicans; type: cell-based; settings: JMRC-No. STI:25000; Supplementary Table 6
Protocol: as §1, §2, §3, §4, §5, §6, §7, §8, §9

[3] = tested on: Penicillium notatum STI:50164; assay: Antifungal inhibition zone test, P. notatum; type: cell-based; settings: JMRC-No. STI:50164; Supplementary Table 6; solvent gave 10
Protocol: as §1, §2, §3, §4, §5, §6, §7, §8, §9

[4] = tested on: Sporobolomyces salmonicolor ST:35974; assay: Antifungal inhibition zone test, S. salmonicolor; type: cell-based; settings: JMRC-No. ST:35974; Supplementary Table 6; solvent gave 10
Protocol: as §1, §2, §3, §4, §5, §6, §7, §8, §9

in vitro = settings: rat
Protocol: as §1
67/L82 (host free axenic amastigotes) to determine the IC50 values as previously described by Orhan et al. (2010) (Supplementary Table 4).9 Additionally, cytotoxicity was determined with an L6 rat-derived cell line (Supplementary Table 4). […]
Supplementary Table 4: Antiparasitic activity and cytotoxicity of natural and hybrid CDPs. […]
(§10) Cytotoxicity was analyzed with rat-derived L6 cells. […]

[5] = tested on: Trypanosoma cruzi Tulahuen C4 (amastigotes); assay: microbe, parasite or virus in culture; settings: for IC50: read-out: IC50 Trypanosoma cruzi; for fold lower IC50 against T. cruzi than the reference drug benznidazole: given as 'up to'
Protocol: Bioactivity assays. Purified octa-enniatin B, octa-beauvericin and hexa-bassianolide were tested for antiparasitic, antibacterial and antifungal bioactivity together with standards of enniatin B, beauvericin and bassianolide. Antiparasitic activity assays were performed against Trypanosoma brucei rhodesiense STIB 900 (trypomastigotes), Trypanosoma cruzi Tulahuen C4 (amastigotes) and Leishmania donovani MHOM-ET-67/L82 (host free axenic amastigotes) to determine the IC50 values as previously described by Orhan et al. (2010) (Supplementary Table 4).9 Additionally, cytotoxicity was determined with an L6 rat-derived cell line (Supplementary Table 4). […]
(§11) Supplementary Table 4: Antiparasitic activity and cytotoxicity of natural and hybrid CDPs. Antiparasitic activity was analyzed against Trypanosoma brucei rhodesiense STIB 900 (trypomastigotes), Trypanosoma cruzi Tulahuen C4 (amastigotes) and Leishmania donovani MHOM-ET-67/L82 (host free axenic amastigotes) as IC50-values.
as §10

[6] = tested on: Staphylococcus aureus ST:33793; assay: Antibacterial inhibition zone test, S. aureus; type: cell-based; settings: JMRC-No. ST:33793; Supplementary Table 5
Protocol: as §1
(§12) For antibacterial testing, the following strains were used: Bacillus subtilis STI:10880, Psudomonas aeruginosa ST:337721 (multi-resistent), Staphylococcus aureus ST:33793, Enterococcus faecalis ST:33700 (vancomycin-resistent) and Mycobacterium vaccae STI:10670 (Supplementary […]
as §3, §4
(§13) Supplementary Table 5: Antibacterial activity of natural and hybrid CDPs. Activity was analyzed by comparison of inhibition zone diameters. […]
as §5, §6, §7
(§14) A- Intimation of inhibition […]

[7] = tested on: Bacillus subtilis STI:10880; assay: Antibacterial inhibition zone test, B. subtilis; type: cell-based; settings: JMRC-No. STI:10880; Supplementary Table 5
Protocol: as §1, §12, §3, §4, §13, §5, §6, §7, §14

[8] = tested on: Mycobacterium vaccae STI:10670; assay: Antibacterial inhibition zone test, M. vaccae; type: cell-based; settings: JMRC-No. STI:10670; Supplementary Table 5
Protocol: as §1, §12, §3, §4, §13, §5, §6, §7, §14

[9] = tested on: Trypanosoma brucei rhodesiense STIB 900 (trypomastigotes); assay: microbe, parasite or virus in culture
Protocol: as §1
as §11, with “IC50-values. […]” for “IC50-values.”

[10] = tested on: Leishmania donovani MHOM-ET-67/L82 (host free axenic amastigotes); assay: microbe, parasite or virus in culture; settings: for IC50: read-out: IC50 Leishmania donovani
Protocol: as §1
as §11, with “IC50-values. […]” for “IC50-values.”

[11] = tested on: Pseudomonas aeruginosa ST:337721 (multi-resistent); assay: Antibacterial inhibition zone test, P. aeruginosa; type: cell-based; settings: JMRC-No. ST:337721; Supplementary Table 5; solvent gave 10
Protocol: as §1, §12, §3, §4, §13, §5, §6, §7, §14

[12] = tested on: Enterococcus faecalis ST:33700 (vancomycin-resistent); type: cell-based; settings: JMRC-No. ST:33700; Supplementary Table 5
Protocol: as §1, §12, §3, §4, §13, §5, §6, §7, §14

[13] = read-out: IC50 Trypanosoma b. rhodesiense, STIB 900, trypomastigotes, Supplementary Table 4
[14] = MHOM-ET-67/L82, host free axenic amastigotes, Supplementary Table 4 and main text
[15] = Tulahuen C4, amastigotes, Supplementary Table 4 and main text

## C[C@@H]1[C@H](O)[C@@H](C)/C=C/C=C/C=C/C=C/C=C/C=C/C=C/[C@H](O[C@@H]2O[C@H](C)[C@@H](O)[C@H](N)[C@@H]2O)C[C@@H]2O[C@](O)(C[C@@H](O)C[C@@H](O)[C@H](O)CC[C@@H](O)C[C@@H](O)CC(=O)O[C@H]1C)C[C@H](O)[C@H]2C(=O)O [Amphotericin B, amphotericin B]
[1]
  Inhibition zone diameter, Aspergillus fumigatus: 20
[2]
  Inhibition zone diameter, Candida albicans: 20
[3]
  Inhibition zone diameter, Penicillium notatum: 18p
[4]
  Inhibition zone diameter, Sporobolomyces salmonicolor: 18p

## O=C(Cn1ccnc1[N+](=O)[O-])NCc1ccccc1 [Benznidazole, benznidazole]
In vitro
  IC50: > 380000 nM
[5]; Trypanosoma cruzi, TULAHUEN
  IC50: 6530 nM

## O=C(O)c1cn(C2CC2)c2cc(N3CCNCC3)c(F)cc2c1=O [Ciprofloxacin, ciprofloxacin]
[6]
  Inhibition zone diameter, Staphylococcus aureus: 0
[7]
  Inhibition zone diameter, Bacillus subtilis: 29
[8]
  Inhibition zone diameter, Mycobacterium vaccae: 20p

## Nc1nc(N)nc(Nc2ccc([As]3SCC(CO)S3)cc2)n1 (stereo not drawn) [Melarsoprol, melarsoprol]
In vitro
  IC50: 28600 nM
[9]; Trypanosoma brucei, RHODESIENSE|STIB900, read-out: IC50 Trypanosoma b. rhodesiense
  IC50: 7 nM

## CCCCCCCCCCCCCCCCOP(=O)([O-])OCC[N+](C)(C)C [Miltefosine, miltefosine]
In vitro
  IC50: 138000 nM
[10]; Leishmania donovani
  IC50: 576 nM

## CC(C)C[C@H]1C(=O)O[C@H](C(C)C)C(=O)N(C)[C@@H](CC(C)C)C(=O)O[C@H](C(C)C)C(=O)N(C)[C@@H](CC(C)C)C(=O)O[C@H](C(C)C)C(=O)N(C)[C@@H](CC(C)C)C(=O)O[C@H](C(C)C)C(=O)N1C [bassianolide]
[11]
  Inhibition zone diameter, Pseudomonas aeruginosa (multi-resistent): 0
[6]
  Inhibition zone diameter, Staphylococcus aureus: 0
[1]
  Inhibition zone diameter, Aspergillus fumigatus: 0
[2]
  Inhibition zone diameter, Candida albicans: 0
[12]
  Inhibition zone diameter, Enterococcus faecalis (vancomycin-resistent): 0
In vitro
  IC50: 5110 nM
[7]
  Inhibition zone diameter, Bacillus subtilis: 0
[3]
  Inhibition zone diameter, Penicillium notatum: 0
[8]
  Inhibition zone diameter, Mycobacterium vaccae: 12p
[9]; [13]
  IC50: 1690 nM
[10]; [14]
  IC50: 195 nM
[5]; [15]
  IC50: 1390 nM
[4]
  Inhibition zone diameter, Sporobolomyces salmonicolor: 0

## CC(C)[C@H]1OC(=O)[C@H](Cc2ccccc2)N(C)C(=O)[C@@H](C(C)C)OC(=O)[C@H](Cc2ccccc2)N(C)C(=O)[C@@H](C(C)C)OC(=O)[C@H](Cc2ccccc2)N(C)C1=O [beauvericin]
[11]
  Inhibition zone diameter, Pseudomonas aeruginosa (multi-resistent): 14P
[6]
  Inhibition zone diameter, Staphylococcus aureus: 13
[2]
  Inhibition zone diameter, Candida albicans: 0
[12]
  Inhibition zone diameter, Enterococcus faecalis (vancomycin-resistent): 18F
In vitro
  IC50: 1940 nM
[7]
  Inhibition zone diameter, Bacillus subtilis: 18
[3]
  Inhibition zone diameter, Penicillium notatum: 14p
[8]
  Inhibition zone diameter, Mycobacterium vaccae: 27
[9]; [13]
  IC50: 1630 nM
[10]; [14]
  IC50: 311 nM
[5]; [15]
  IC50: 764 nM
[4]
  Inhibition zone diameter, Sporobolomyces salmonicolor: 0

## CC(C)[C@H]1C(=O)O[C@H](C(C)C)C(=O)N(C)[C@@H](C(C)C)C(=O)O[C@H](C(C)C)C(=O)N(C)[C@@H](C(C)C)C(=O)O[C@H](C(C)C)C(=O)N1C [enniatin B]
[6]
  Inhibition zone diameter, Staphylococcus aureus: 15P
[1]
  Inhibition zone diameter, Aspergillus fumigatus: 0
[2]
  Inhibition zone diameter, Candida albicans: 0
In vitro
  IC50: 4110 nM
[7]
  Inhibition zone diameter, Bacillus subtilis: 15p
[8]
  Inhibition zone diameter, Mycobacterium vaccae: 24
[9]; [13]
  IC50: 1050 nM
[10]; [14]
  IC50: 719 nM
[5]; [15]
  IC50: 2300 nM
[4]
  Inhibition zone diameter, Sporobolomyces salmonicolor: 0

## CC(C)C[C@H]1C(=O)O[C@H](C(C)C)C(=O)N(C)[C@@H](CC(C)C)C(=O)O[C@H](C(C)C)C(=O)N(C)[C@@H](CC(C)C)C(=O)O[C@H](C(C)C)C(=O)N1C [hexa-bassianolide]
[6]
  Inhibition zone diameter, Staphylococcus aureus: 0
[1]
  Inhibition zone diameter, Aspergillus fumigatus: 0
[2]
  Inhibition zone diameter, Candida albicans: 0
[12]
  Inhibition zone diameter, Enterococcus faecalis (vancomycin-resistent): 0
In vitro
  IC50: 6350 nM
[7]
  Inhibition zone diameter, Bacillus subtilis: 10
[3]
  Inhibition zone diameter, Penicillium notatum: 0
[8]
  Inhibition zone diameter, Mycobacterium vaccae: 14p
[9]
  activity against Trypanosoma b. rhodesiense (in words): active
[9]; [13]
  IC50: 1260 nM
[10]
  activity against Leishmania donovani (in words): active
[10]; [14]
  IC50: 315 nM
[5]
  activity against Trypanosoma cruzi (in words): active
[5]; [15]
  IC50: 3520 nM
[4]
  Inhibition zone diameter, Sporobolomyces salmonicolor: 0

## CC(C)[C@H]1OC(=O)[C@H](Cc2ccccc2)N(C)C(=O)[C@@H](C(C)C)OC(=O)[C@H](Cc2ccccc2)N(C)C(=O)[C@@H](C(C)C)OC(=O)[C@H](Cc2ccccc2)N(C)C(=O)[C@@H](C(C)C)OC(=O)[C@H](Cc2ccccc2)N(C)C1=O [octa-beauvericin]
[11]
  Inhibition zone diameter, Pseudomonas aeruginosa (multi-resistent): 0
[6]
  Inhibition zone diameter, Staphylococcus aureus: 0
[2]
  Inhibition zone diameter, Candida albicans: 0
[12]
  Inhibition zone diameter, Enterococcus faecalis (vancomycin-resistent): 0
In vitro
  IC50: 1580 nM
[7]
  Inhibition zone diameter, Bacillus subtilis: 0
[3]
  Inhibition zone diameter, Penicillium notatum: 0
[8]
  Inhibition zone diameter, Mycobacterium vaccae: 12p
[9]; [13]
  IC50: 782 nM
[10]; [14]
  IC50: 144 nM
[5]
  fold lower IC50 against T. cruzi than the reference drug benznidazole: up to 12 fold
[5]; [15]
  IC50: 533 nM
[4]
  Inhibition zone diameter, Sporobolomyces salmonicolor: 0

## CC(C)[C@H]1C(=O)O[C@H](C(C)C)C(=O)N(C)[C@@H](C(C)C)C(=O)O[C@H](C(C)C)C(=O)N(C)[C@@H](C(C)C)C(=O)O[C@H](C(C)C)C(=O)N(C)[C@@H](C(C)C)C(=O)O[C@H](C(C)C)C(=O)N1C [octa-enniatin B]
In vitro
  IC50: 3900 nM
[9]; [13]
  IC50: 873 nM
[10]; [14]
  IC50: 70 nM
[5]
  fold lower IC50 against T. cruzi than the reference drug benznidazole: up to 12 fold
[5]; [15]
  IC50: 1750 nM
